Laboratory results as given in US10940139B2, “Compounds that interact with the Ras superfamily for the treatment of cancers, inflammatory diseases, rasopathies, and fibrotic disease” (Shy Therapeutics LLC, priority 2017, dated 2021).

system: MIA-PACA2 pancreatic cancer cell lines; test: Cell proliferation assay (CellTiter 96 AQueous One); format: cell-based; details: Homo sapiens, MIA PaCa-2; MIA-PACA2, same assay as the % inhibition (standard conditions)
Protocol: Cell lines: Tumor-derived pancreatic cancer cell lines MIA-PACA2 were purchased from ATCC and grown in complete DMEM-High Glucose medium supplemented with penicillin (100 U/mL), streptomycin (100 μg/mL), and 10% heat-inactivated FBS at 37° C. in a humidified incubator with 5% CO2.
Method: Cells are plated at 1000 cells/well density in 96-wells plate, starved ON, and the next day tested small molecules are added to the cells in the final concentration of 30 μM with 0.3% DMSO 3 hours prior to 10% FBS addition. After serum addition cells are incubated for 6 days at 37° C. in a humidified incubator with 5% CO2. For IC50 value determination, serial dilutions of compounds were added to cells under the same conditions.
Assay: At the end of the incubation period, cell cultures are tested using the CellTiter 96® AQueous One Solution Cell Proliferation Assay kit (Promega Corporation, Madison, Wis.) according to the manufacturer specifications. Briefly, assay is performed by adding 20 μl of the CellTiter 96 Aqueous One Solution Reagent directly to culture wells, followed by for 1-4 hours incubation at 37° C. in a humidified incubator with 5% CO2. At the end of incubation time, absorbance at 492 nm is recorded with the 96-well plate reader Eppendorf AF2200, and degree of small molecule-dependent proliferation inhibition is calculated from raw data assuming No Serum cells value as 100%.

SMILES | IC50 [nM]
O=c1nc(-c2ccccn2)[nH]c2ccsc12 [drawing 1494] | > 1000
COCC(C)Nc1nc(-c2ccccn2)nc2sc(C)c(-c3ccccc3)c12 (stereo not drawn) [drawing 1510] | > 1000

same assay, conditions: Homo sapiens, MIA PaCa-2; at 30 μM, MIA-PACA2

SMILES | inhibition at 30 µM [%]
NC(=O)c1ccc(OCC(=O)Nc2nnc(-c3ccccn3)[nH]2)cc1 [drawing 1450] | 1 to 25
COc1ccccc1-c1cc(C(=O)Nc2nnc(-c3ccccn3)[nH]2)no1 [drawing 1451] | 76 to 100
O=C(Nc1nnc(-c2ccccn2)[nH]1)c1cccc(N2CCCS2(=O)=O)c1 [drawing 1452] | 1 to 25
CC(C)C(=O)Nc1nc(CC(=O)Nc2nnc(-c3ccccn3)[nH]2)cs1 [drawing 1453] | 76 to 100
CC(C)(C)c1nc(C(=O)Nc2nnc(-c3ccccn3)[nH]2)cs1 [drawing 1454] | 76 to 100
O=C(Nc1nnc(-c2ccccn2)[nH]1)C1=NOC(c2ccccc2)C1 (stereo not drawn) [drawing 1455] | 25 to 50
O=C(COc1ccccc1)Nc1nnc(-c2ccccn2)[nH]1 [drawing 1456] | 25 to 50
O=C(Nc1nnc(-c2ccccn2)[nH]1)c1csc(-c2ccco2)n1 [drawing 1457] | 76 to 100
O=C(Nc1nnc(-c2ccccn2)[nH]1)C1CC(=O)N(Cc2cccc(C(F)(F)F)c2)C1 (stereo not drawn) [drawing 1458] | 76 to 100
O=C(Nc1nnc(-c2ccccn2)[nH]1)C1Cc2cc(Cl)ccc2O1 (stereo not drawn) [drawing 1459] | 76 to 100
O=C(Nc1nnc(-c2ccccn2)[nH]1)c1ccc(Oc2cccnc2)cc1 [drawing 1460] | 76 to 100
O=C(Cc1ccc2c(c1)OCCO2)Nc1nnc(-c2ccccn2)[nH]1 [drawing 1461] | 51 to 75
N#CCc1ccc(OCC(=O)Nc2nnc(-c3ccccn3)[nH]2)cc1 [drawing 1462] | 1 to 25
O=C(Nc1nnc(-c2ccccn2)[nH]1)c1ccc(=O)n(CCOc2ccccc2)n1 [drawing 1463] | 76 to 100
Cc1cccc(OCC(=O)Nc2nnc(-c3ccccn3)[nH]2)c1 [drawing 1464] | 51 to 75
O=C(Nc1nnc(-c2ccccn2)[nH]1)C1CCN(C(=O)c2cccs2)CC1 [drawing 1465] | 76 to 100
COc1cn(-c2ccccc2)nc1C(=O)Nc1nnc(-c2ccccn2)[nH]1 [drawing 1466] | 51 to 75
CN(CC(=O)Nc1nnc(-c2ccccn2)[nH]1)S(=O)(=O)c1ccccc1 [drawing 1467] | 1 to 25
O=C(Nc1nnc(-c2ccccn2)[nH]1)c1ccn(-c2cccc(Cl)c2)n1 [drawing 1468] | 76 to 100
CS(=O)(=O)N1CCCc2cc(C(=O)Nc3nnc(-c4ccccn4)[nH]3)ccc21 [drawing 1469] | 76 to 100
O=C(Nc1nnc(-c2ccccn2)[nH]1)c1ccc(=O)[nH]n1 [drawing 1470] | 25 to 50
COc1ccc(COCC(=O)Nc2nnc(-c3ccccn3)[nH]2)cc1 [drawing 1471] | 1 to 25
COc1ccc(OCc2nc(CNCCc3nnc4n3CCC4)cs2)cc1 [drawing 1472] | 76 to 100
O=C(Nc1nc(-c2ccccn2)cs1)C1COc2ccccc2O1 (stereo not drawn) [drawing 1473] | 76 to 100
O=C(Nc1nc(-c2ccccn2)cs1)c1cccc(F)c1 [drawing 1474] | 76 to 100
Cc1cc(C(=O)Nc2nc(-c3ccccn3)cs2)no1 [drawing 1475] | 76 to 100
O=C(Cn1c(=O)cnc2ccccc21)Nc1nc(-c2ccccn2)cs1 [drawing 1476] | 76 to 100

SMILES | inhibition at 30 µM [%]
O=C(Nc1nc(-c2ccccn2)cs1)c1ccc2nccnc2c1 [drawing 1477] | 76 to 100
O=C(Nc1nc(-c2ccccn2)cs1)c1ccc2[nH]cnc2c1 [drawing 1478] | 76 to 100
CS(=O)(=O)Cc1ccc(C(=O)Nc2nc(-c3ccccn3)cs2)cc1 [drawing 1479] | 76 to 100
O=C(Nc1nc(-c2ccccn2)cs1)c1ccccn1 [drawing 1480] | 76 to 100
O=C(Cn1cnc2ccccc2c1=O)Nc1nc(-c2ccccn2)cs1 [drawing 1481] | 76 to 100
O=C(Nc1nc(-c2ccccn2)cs1)C1CC(=O)N(c2ccc3c(c2)OCCO3)C1 (stereo not drawn) [drawing 1482] | 76 to 100
O=C(Nc1nc(-c2ccccn2)cs1)c1cccnc1 [drawing 1483] | 76 to 100
O=C(Cc1cccc(F)c1)Nc1nc(-c2ccccn2)cs1 [drawing 1484] | 76 to 100
O=C(Nc1nc(-c2ccccn2)cs1)c1ccncc1 [drawing 1485] | 76 to 100
O=C(Nc1nc(-c2ccccn2)cs1)c1ccc(F)cc1 [drawing 1486] | 76 to 100
COc1cccc(C(=O)Nc2nc(-c3ccccn3)cs2)c1 [drawing 1487] | 76 to 100
COc1ccc(C(=O)Nc2nc(-c3ccccn3)cs2)cn1 [drawing 1488] | 76 to 100
COc1ccc(-c2csc3[nH]c(-c4ccccn4)nc(=O)c23)cc1 [drawing 1489] | 76 to 100
O=c1nc(-c2ccccn2)[nH]c2scc(-c3cccs3)c12 [drawing 1490] | 76 to 100
CNC(=O)c1sc2[nH]c(-c3ccccn3)nc(=O)c2c1C [drawing 1491] | 51 to 75
O=c1nc(-c2ccccn2)[nH]c2scc(-c3ccccc3Cl)c12 [drawing 1492] | 76 to 100
Cc1sc2[nH]c(-c3ccccn3)nc(=O)c2c1-c1ccccc1 [drawing 1493] | 76 to 100
O=c1nc(-c2ccccn2)[nH]c2ccsc12 [drawing 1494] | 1 to 25
O=c1nc(-c2ccccn2)[nH]c2sc(-c3ccccc3)cc12 [drawing 1495] | 76 to 100
CCN(CC)C(=O)c1sc2[nH]c(-c3ccccn3)nc(=O)c2c1C [drawing 1496] | 76 to 100
Cc1c(C(=O)N(C)C)sc2[nH]c(-c3ccccn3)nc(=O)c12 [drawing 1497] | 51 to 75
O=c1nc(-c2ccccn2)[nH]c2c1CCC2 [drawing 1498] | 1 to 25
O=c1nc(-c2ccccn2)[nH]c2c1sc1ccccc12 [drawing 1499] | 76 to 100
Cc1cc2c(=O)nc(-c3cc(OCC(F)F)ccn3)[nH]c2s1 [drawing 1500] | 76 to 100
COc1ccc(NC(=O)CCc2c(C)nc(-c3ccccn3)nc2O)cn1 [drawing 1501] | 76 to 100
Cc1nc(-c2ccccn2)nc(O)c1CCC(=O)NCCc1cccs1 [drawing 1502] | 76 to 100
Cc1nc(-c2ccccn2)nc(O)c1CCC(=O)Nc1cc(F)ccc1F [drawing 1503] | 76 to 100

SMILES | inhibition at 30 µM [%]
Cc1nc(-c2ccccn2)nc(O)c1CCC(=O)NC1CCc2ccccc21 (stereo not drawn) [drawing 1504] | 76 to 100
Cc1nc(-c2ccccn2)nc(O)c1CCC(=O)Nc1ccc(C(C)C)cc1 [drawing 1505] | 76 to 100
COC(=O)c1cc(NC(=O)CCc2c(C)nc(-c3ccccn3)nc2O)ccc1Cl [drawing 1506] | 76 to 100
Cc1nc(-c2ccccn2)nc(O)c1CCC(=O)Nc1cccc(OCC(=O)N2CCCC2)c1 [drawing 1507] | 1 to 25
CCN(CC)S(=O)(=O)c1cc(C)c(C)c(NC(=O)CCc2c(C)nc(-c3ccccn3)nc2O)c1 [drawing 1508] | 76 to 100
OCCNc1nc(-c2ccccn2)nc2scc(-c3ccccc3)c12 [drawing 1509] | 76 to 100
COCC(C)Nc1nc(-c2ccccn2)nc2sc(C)c(-c3ccccc3)c12 (stereo not drawn) [drawing 1510] | 76 to 100
CCc1cc(NNC(=O)c2ccc(C#N)cc2)nc(-c2ccccn2)n1 [drawing 1511] | 76 to 100
COCCCn1ccc(Nc2cc(C)nc(-c3ccccn3)n2)n1 [drawing 1512] | 25 to 50
CC(O)CNc1nc(-c2ccccn2)nc2scc(-c3ccccc3)c12 (stereo not drawn) [drawing 1513] | 76 to 100
NC(=O)C1(CNc2nc(-c3ccccn3)nc3c2CCC3)CCCC1 [drawing 1514] | 76 to 100
OCCOCCNc1nc(-c2ccccn2)nc2scc(-c3ccccc3)c12 [drawing 1515] | 76 to 100
Cc1sc2nc(-c3ccccn3)nc(NCCCO)c2c1-c1ccccc1 [drawing 1516] | 76 to 100
COC(=O)c1cccc(CN2CCC(CSc3ccccc3)C2)c1C#N (stereo not drawn) [drawing 1517] | 76 to 100
COC(=O)c1cc(NCc2nc(CC(C)C)no2)ccc1Cl [drawing 1518] | 76 to 100
Cc1cccc(CN(Cc2ccccn2)Cc2nccn2C)c1 [drawing 1519] | 76 to 100
Cc1ccc(CN(Cc2ccco2)C(=O)c2oc3ccccc3c2C)cc1 [drawing 1520] | 1 to 25
Cc1ccc(O)c(CN(C)Cc2nccn2Cc2ccccc2)n1 [drawing 1521] | 76 to 100
CCCCSc1nc(-c2cccs2)c(C(=O)C(F)(F)F)cc1C#N [drawing 1523] | 76 to 100
CCC(C)(C)c1ccc(OCCCC(=O)NC(C(=O)OC)C(C)C)c(C(C)(C)CC)c1 (stereo not drawn) [drawing 1524] | 76 to 100
Oc1ccc(C2(c3cccc(Cl)c3)CCCC2)cc1 [drawing 1525] | 76 to 100
Cc1ccc(-c2ccc(Oc3ccc(C(F)(F)F)cn3)c(C)c2)cc1 [drawing 1526] | 76 to 100
CCOc1cc(C(=O)Oc2c(C)ccc(C)c2C)cc(OCC)c1OCC [drawing 1527] | 76 to 100
COC(=O)c1ccc(C(=O)NCC2(c3ccccc3OC)CCCC2)nc1 [drawing 1528] | 76 to 100
CCOc1cc(S(=O)(=O)N(Cc2ccccc2)Cc2ccccc2)c(OCC)cc1C [drawing 1529] | 76 to 100
